# Experiments:
# Assay type in all cases: biochemical
# [1] = target: human JAK1 (a.a. 837-1142) (Homo sapiens, UniProt P23458); assay: In vitro JAK kinase assay (HTRF, phosphorylation of a biotinylated peptide), JAK1; conditions: measured at 1 mM ATP
# In short: (§1)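 N-terminally His-tagged catalytic domains, baculovirus-expressed in insect cells and purified, were used as enzyme. Reactions ran 1 hr at room temperature and were stopped with a mix of 45 mM EDTA, 300 nM SA-APC and 6 nM Eu-Py20. The HTRF signal was read after 40 min of antibody binding.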
# [2] = target: human JAK1 (a.a. 837-1142); assay: as above; conditions: ratio of JAK2 IC50 to JAK1 IC50, measured at 1 mM ATP
# In short: as §1
# [3] = target: Jak2 (a.a. 828-1132) (Homo sapiens (Human), UniProt O60674); assay: In vitro JAK kinase assay (HTRF, phosphorylation of a biotinylated peptide), JAK2; conditions: measured at 1 mM ATP
# In short: as §1
# Sequence of Jak2 (a.a. 828-1132) (O60674 828-1132): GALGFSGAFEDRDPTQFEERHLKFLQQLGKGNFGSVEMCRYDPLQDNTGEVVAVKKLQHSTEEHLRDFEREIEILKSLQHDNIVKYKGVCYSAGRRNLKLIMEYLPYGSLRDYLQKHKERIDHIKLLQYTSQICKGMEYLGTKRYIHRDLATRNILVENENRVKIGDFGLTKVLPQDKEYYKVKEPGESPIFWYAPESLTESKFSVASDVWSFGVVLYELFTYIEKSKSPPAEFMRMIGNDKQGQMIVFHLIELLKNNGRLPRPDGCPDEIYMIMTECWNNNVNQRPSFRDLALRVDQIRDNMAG
SMILES,IC50 [1] [nM],IC50 Ratio JAK2/JAK1 [2],IC50 [3] [nM]
"N#CCC1(n2cc(-c3ncnc4[nH]ccc34)cn2)CN(C2CCN(Cc3cc(F)cc(F)c3)CC2)C1 [Example 215, {1-[1-(3,5-difluorobenzyl)piperidin-4-yl]-3-[4-(7H-pyrrolo[2,3-d]pyrimidin-4-yl)-1H-pyrazol-1-yl]azetidin-3-yl}acetonitrile]",≤ 5,5.7,10 to 50
"N#CCC1(n2cc(-c3ncnc4[nH]ccc34)cn2)CN(C2CC3CCC(C2)N3C(=O)c2ccc(Cl)c(F)c2)C1 (stereo not drawn) [Example 141, {1-[8-(4-chloro-3-fluorobenzoyl)-8-azabicyclo[3.2.1]oct-3-yl]-3-[4-(7H-pyrrolo[2,3-d]pyrimidin-4-yl)-1H-pyrazol-1-yl]azetidin-3-yl}acetonitrile]",≤ 5,6.2,≤ 10
"Cn1nccc1S(=O)(=O)N1CCC(N2CC(CC#N)(n3cc(-c4ncnc5[nH]ccc45)cn3)C2)CC1 [Example 246, {1-{1-[(1-Methyl-1H-pyrazol-5-yl)sulfonyl]piperidin-4-yl}-3-[4-(7H-pyrrolo[2,3-d]pyrimidin-4-yl)-1H-pyrazol-1-yl]azetidin-3-yl}acetonitrile]",≤ 5,7.5,10 to 50
"CN(C)c1ccc(C(=O)N2CCC(N3CC(CC#N)(n4cc(-c5ncnc6[nH]ccc56)cn4)C3)CC2)c(F)c1C#N [Example 51, 3-[(4-{3-(cyanomethyl)-3-[4-(7H-pyrrolo[2,3-d]pyrimidin-4-yl)-1H-pyrazol-1-yl]azetidin-1-yl}piperidin-1yl)carbonyl]-6-(dimethylamino)-2-fluorobenzonitrile]",≤ 5,6.3,≤ 10
"N#CCC1(n2cc(-c3ncnc4[nH]ccc34)cn2)CN(C2CCN(Cc3c(C(F)(F)F)ccc(Cl)c3F)CC2)C1 [Example 236, {1-{1-[3-chloro-2-fluoro-6-(trifluoromethyl)benzyl]piperidin-4-yl}-3-[4-(7H-pyrrolo[2,3-d]pyrimidin-4-yl)-1H-pyrazol-1-yl]azetidin-3-yl}acetonitrile]",≤ 5,5.5,≤ 10
"COc1ccsc1C(=O)N1CCC(N2CC(CC#N)(n3cc(-c4ncnc5[nH]ccc45)cn3)C2)CC1 [Example 81, {1-{1-[(3-methoxy-2-thienyl)carbonyl]piperidin-4-yl}-3-[4-(7H-pyrrolo[2,3-d]pyrimidin-4-yl)-1H-pyrazol-1-yl]azetidin-3-yl}acetonitrile]",≤ 5,4.2,≤ 10
"N#CCC1(n2cc(-c3ncnc4[nH]ccc34)cn2)CN(C2CCN(C(=O)c3ccc(-c4ccc(C#N)cc4)cc3)CC2)C1 [Example 126, 4′-[(4-{3-(cyanomethyl)-3-[4-(7H-pyrrolo[2,3-d]pyrimidin-4-yl)-1H-pyrazol-1-yl]azetidin-1-yl}piperidin-1-yl)carbonyl]biphenyl-4-carbonitrile]",≤ 5,6.3,10 to 50
"N#CCC1(n2cc(-c3ncnc4[nH]ccc34)cn2)CN(C2CCN(C(=O)c3ccsc3Br)CC2)C1 [Example 75, {1-{1-[(2-bromo-3-thienyl)carbonyl]piperidin-4-yl}-3-[4-(7H-pyrrolo[2,3-d]pyrimidin-4-yl)-1H-pyrazol-1-yl]azetidin-3-yl}acetonitrile]",≤ 5,3.4,≤ 10
"N#CCC1(n2cc(-c3ncnc4[nH]ccc34)cn2)CN(C2CCN(C(=O)c3ccc(C(F)(F)F)c(F)c3)CC2)C1 [Example 52, {1-{1-[3-fluoro-4-(trifluoromethyl)benzoyl]piperidin-4-yl}-3-[4-(7H-pyrrolo[2,3-d]pyrimidin-4-yl)-1H-pyrazol-1-yl]azetidin-3-yl}acetonitrile]",5 to 20,4.4,50 to 100

# — patent US9999619B2, “Piperidin-4-yl azetidine derivatives as JAK1 inhibitors” (Incyte Corporation, priority 2010, dated 2018)
